Earlier results on 53 compounds are cited in paper PMC4460250, “Systems Pharmacology Dissecting Holistic Medicine for Treatment of Complex Diseases: An Example Using Cardiocerebrovascular Diseases Treated by TCM” (Evidence-based Complementary and Alternative Medicine : eCAM, 2015).

The structures appear in SMILES notation.

The conditions of this data set: in vivo; cited from earlier work.

As for `OC[C@@H](O)[C@@H](O)[C@H](O)[C@H](O)CO` [Mannitol], the “HIA(Human Intestinal Absorption)” value was 0.16. For `CC1=C(C(=O)O)N2C(=O)[C@@H](NC(=O)[C@H](N)C3=CCC=CC3)[C@H]2SC1` [Cephradine], the “HIA(Human Intestinal Absorption)” value is listed as 0.95. For the compound `OCCN(CCO)c1nc(N2CCCCC2)c2nc(N(CCO)CCO)nc(N3CCCCC3)c2n1` [Dipyridamole], the “HIA(Human Intestinal Absorption)” value is listed as 0.58. For the compound `CN(C)CCc1c[nH]c2ccc(Cn3cncn3)cc12` [Rizatriptan], the “HIA(Human Intestinal Absorption)” value was 0.9. For `CCCCc1nc(Cl)c(CO)n1Cc1ccc(-c2ccccc2-c2nn[nH]n2)cc1` [Losartan], the “HIA(Human Intestinal Absorption)” value is given as 0.8. As for `O=P(O)(O)C(Sc1ccc(Cl)cc1)P(=O)(O)O` [Tiludronic_acid], the “HIA(Human Intestinal Absorption)” value is listed as 0.06. Consider `Cc1ccc(-c2ncc(Cl)cc2-c2ccc(S(C)(=O)=O)cc2)cn1` [Etoricoxib], for which the “HIA(Human Intestinal Absorption)” value is recorded as 1. With `CCOC(=O)[C@H](CCc1ccccc1)N[C@@H](C)C(=O)N1CCC[C@H]1C(=O)O` [Enalapril], the “HIA(Human Intestinal Absorption)” value is given as 0.66. Regarding `CC(=O)OCC(CCn1cnc2cnc(N)nc21)COC(C)=O` [Famciclovir], the “HIA(Human Intestinal Absorption)” value is reported as 0.77.

Consider `C[N+](C)(CCOc1ccccc1)Cc1ccccc1` [Bephenium], for which the “HIA(Human Intestinal Absorption)” value is 0.05. Consider `CN(C)CCc1c[nH]c2ccc(CS(=O)(=O)N3CCCC3)cc12` [Almotriptan], for which the “HIA(Human Intestinal Absorption)” value is on record as 0.75. Take `C#C[C@]1(O)C=C[C@H]2[C@@H]3CCC4=CC(=O)CC[C@@H]4[C@H]3CC[C@@]21CC` [Gestodene]: the “HIA(Human Intestinal Absorption)” value is recorded as 1. For `COCCCOc1ccnc(C[S+]([O-])c2nc3ccccc3[nH]2)c1C` (centres unmarked) [Rabeprazole], the “HIA(Human Intestinal Absorption)” value is listed as 0.9. Turning to `Cc1cccc(Nc2ccncc2S(=O)(=O)NC(=O)NC(C)C)c1` [Torasemide], the “HIA(Human Intestinal Absorption)” value was 0.96. `COc1cc(C)c(/C=C/C(C)=C/C=C/C(C)=C/C(=O)O)c(C)c1C` [Acitretin]: the “HIA(Human Intestinal Absorption)” value is 0.95. With `CNCCCC1c2ccccc2C=Cc2ccccc21` [Protriptyline], the “HIA(Human Intestinal Absorption)” value is 0.95. Turning to `O=C(C1CCCCC1)N1CC(=O)N2CCc3ccccc3C2C1` (centres unmarked) [Praziquantel], the “HIA(Human Intestinal Absorption)” value is 1.

For the compound `CCOc1ccccc1OCCN[C@H](C)Cc1ccc(OC)c(S(N)(=O)=O)c1` [Tamsulosin], the “HIA(Human Intestinal Absorption)” value was 1.

As for `O=C(O)Cc1ccc2c(c1)C(=O)c1ccccc1CO2` [Isoxepac], the “HIA(Human Intestinal Absorption)” value is listed as 0.98. Take `COc1cc(Cc2cnc(N)nc2N)cc(OC)c1OC` [Trimethoprim]: the “HIA(Human Intestinal Absorption)” value was 0.97. Turning to `CCCN1CC(NS(=O)(=O)N(CC)CC)CC2Cc3c(O)cccc3CC21` (centres unmarked) [Quinagolide], the “HIA(Human Intestinal Absorption)” value is given as 1. For the compound `Cc1cc(NS(=O)(=O)c2ccc(N)cc2)nc(C)n1` [Sulfisomidine], the “HIA(Human Intestinal Absorption)” value is 0.9. On to `COc1cc2c(cc1OC)C1CC(=O)C(CC(C)C)CN1CC2` (centres unmarked) [Tetrabenazine], for which the “HIA(Human Intestinal Absorption)” value was 1. Turning to `CCCC1O[C@@H]2C[C@H]3[C@@H]4CCC5=CC(=O)C=C[C@]5(C)[C@H]4[C@@H](O)C[C@]3(C)[C@]2(C(=O)CO)O1` (some centres unmarked) [Budesonide], the “HIA(Human Intestinal Absorption)” value is recorded as 1. Regarding `CCC1(c2ccccc2)C(=O)NC(=O)NC1=O` [Phenobarbital], the “HIA(Human Intestinal Absorption)” value is 1. For `CC(=O)Nc1ccc(O)cc1` [Paracetamol], the “HIA(Human Intestinal Absorption)” value is listed as 0.8. As to `C[C@@H]1O[C@@H]1P(=O)(O)O` [Fosfomycin], the “HIA(Human Intestinal Absorption)” value was 0.31.

With `CC1=C(CC(=O)O)c2cc(F)ccc2/C1=C\c1ccc([S+](C)[O-])cc1` (centres unmarked) [Sulindac], the “HIA(Human Intestinal Absorption)” value is on record as 0.9. For `COc1ccc([C@]2(C#N)CC[C@@H](C(=O)O)CC2)cc1OC1CCCC1` [Cilomilast], the “HIA(Human Intestinal Absorption)” value is reported as 1. As for `O=P(O)(O)C(Cl)(Cl)P(=O)(O)O` [Clodronate], the “HIA(Human Intestinal Absorption)” value is 0.03. As for `CC(=O)O[C@]1(C(C)=O)CC[C@H]2[C@@H]3C=C(Cl)C4=CC(=O)[C@@H]5C[C@@H]5[C@]4(C)[C@H]3CC[C@@]21C` [Cyproterone_acetate], the “HIA(Human Intestinal Absorption)” value was 0.98.

As to `Cc1nnc(NS(=O)(=O)c2ccc(N)cc2)s1` [Sulfamethizole], the “HIA(Human Intestinal Absorption)” value is given as 0.85. As for `O=C(O)P(=O)(O)O` [Foscarnet], the “HIA(Human Intestinal Absorption)” value is 0.17. For `O=C1NC(=O)C(c2ccccc2)(c2ccccc2)N1` [Phenytoin], the “HIA(Human Intestinal Absorption)” value is listed as 0.9. As for `Nc1nc(=O)[nH]cc1F` [Flucytosine], the “HIA(Human Intestinal Absorption)” value is given as 1.

As to `O=C(O)c1ccccc1C(=O)Nc1ccc(S(=O)(=O)Nc2nccs2)cc1` [Phthalylsulfathiazole], the “HIA(Human Intestinal Absorption)” value is 0.05. On to `Nc1nnc(-c2cccc(Cl)c2Cl)c(N)n1` [Lamotrigine], for which the “HIA(Human Intestinal Absorption)” value is 0.98. Regarding `N=C(N)N/N=C/c1c(Cl)cccc1Cl` [Guanabenz], the “HIA(Human Intestinal Absorption)” value is on record as 0.8. With `CC(=O)S[C@@H]1CC2=CC(=O)CC[C@]2(C)[C@H]2CC[C@@]3(C)[C@@H](CC[C@@]34CCC(=O)O4)[C@H]12` [Spironolactone], the “HIA(Human Intestinal Absorption)” value is 0.73. As to `C=CCNc1nc(NCC=C)nc(N2CCN(C(c3ccc(F)cc3)c3ccc(F)cc3)CC2)n1` [Almitrine], the “HIA(Human Intestinal Absorption)” value is recorded as 0.9. On to `O=C1CN2Cc3c(ccc(Cl)c3Cl)N=C2N1` [Anagrelide], for which the “HIA(Human Intestinal Absorption)” value is reported as 0.7. With `O=c1[nH]c(=O)n([C@@H]2O[C@H](CO)[C@@H](O)[C@@H]2O)cc1/C=C/Br` [Sorivudine], the “HIA(Human Intestinal Absorption)” value is listed as 0.82. As for `Cc1cnc(C(=O)O)c[n+]1[O-]` [Acipimox], the “HIA(Human Intestinal Absorption)” value is recorded as 0.95. On to `CN(C)CCOc1ccc(/C(=C(/CCCl)c2ccccc2)c2ccccc2)cc1` [Toremifene], for which the “HIA(Human Intestinal Absorption)” value is listed as 1. For the compound `CN(C)CCCN1c2ccccc2Sc2ccc(Cl)cc21` [Chlorpromazine], the “HIA(Human Intestinal Absorption)” value is listed as 0.98. For `CNCCCC12CCC(c3ccccc31)c1ccccc12` [Maprotiline], the “HIA(Human Intestinal Absorption)” value is listed as 0.98.

In the case of `O=C1c2ccccc2C(=O)C1c1ccccc1` [Phenindione], the “HIA(Human Intestinal Absorption)” value was 1.

For the compound `COc1cccc2c1C(=O)c1c(O)c3c(c(O)c1C2=O)C[C@@](O)(C(=O)CO)C[C@@H]3O[C@H]1C[C@H](N)[C@H](O)[C@H](C)O1` [Doxorubicin], the “HIA(Human Intestinal Absorption)” value is reported as 0.12. Consider `OCCN1CCN(CCC=C2c3ccccc3Sc3ccc(Cl)cc32)CC1` [Clopenthixol], for which the “HIA(Human Intestinal Absorption)” value was 0.95. As for `CNS(=O)(=O)Cc1ccc2[nH]cc(CCN(C)C)c2c1` [Sumatriptan], the “HIA(Human Intestinal Absorption)” value is recorded as 0.57.

With `CN1CCN(CCCCN2C(=O)CN(/N=C/c3ccc(-c4ccc(Cl)cc4)o3)C2=O)CC1` [Azimilide], the “HIA(Human Intestinal Absorption)” value was 1. As to `NC(N)=Nc1nc(CSCCC(N)=NS(N)(=O)=O)cs1` [Famotidine], the “HIA(Human Intestinal Absorption)” value is given as 0.28. As to `CO[C@@]1(NC(=O)CSCC#N)C(=O)N2C(C(=O)O)=C(CSc3nnnn3C)CS[C@@H]21` [Cefmetazole], the “HIA(Human Intestinal Absorption)” value is reported as 0.1.
